# Reference: article PMC5218480 (PLoS ONE, 2017)
# Test system: MV-4-11 cells
# Experiment: Gene expression microarray analysis (Affymetrix PrimeView) and GSEA
# Format: cell-based, human
# Parameters: RFU PODN (11730768_x_at) / Fold change /veh PODN (11730768_x_at) / RFU LINC00158 (11744669_a_at) / Fold change /veh LINC00158 (11744669_a_at) / RFU DUSP10 (11751237_a_at) / Fold change /veh DUSP10 (11751237_a_at) / RFU ID3 (11757404_x_at) / Fold change /veh ID3 (11757404_x_at) / RFU PLEKHG5 (11737974_s_at) / Fold change /veh PLEKHG5 (11737974_s_at) / RFU LRRC4B (11730491_at) / Fold change /veh LRRC4B (11730491_at) / RFU GIMAP4 (11747438_a_at) / Fold change /veh GIMAP4 (11747438_a_at) / RFU KRT8 (11758183_x_at) / Fold change /veh KRT8 (11758183_x_at) / RFU CNN1 (11734310_a_at) / Fold change /veh CNN1 (11734310_a_at) / RFU VPS37D (11726825_at) / Fold change /veh VPS37D (11726825_at) / RFU C10orf10 (11716522_x_at) / Fold change /veh C10orf10 (11716522_x_at) / RFU KIR2DL2 /// KIR2DL4 /// KIR2DL5A /// KIR2DL5B /// KIR2DS1 /// KIR2DS2 /// KIR2DS3 /// KIR2DS4 /// KIR3DL3 /// KIR3DL3 /// KIR3DS1 (11738374_at) / Fold change /veh KIR2DL2 /// KIR2DL4 /// KIR2DL5A /// KIR2DL5B /// KIR2DS1 /// KIR2DS2 /// KIR2DS3 /// KIR2DS4 /// KIR3DL3 /// KIR3DL3 /// KIR3DS1 (11738374_at) / RFU C1QL1 (11718748_at) / Fold change /veh C1QL1 (11718748_at) / RFU TMPRSS4 (11747572_a_at) / Fold change /veh TMPRSS4 (11747572_a_at) / RFU HAMP (11756126_x_at) / Fold change /veh HAMP (11756126_x_at) / RFU RNFT2 (11725882_a_at) / Fold change /veh RNFT2 (11725882_a_at) / RFU NR4A2 (11747474_a_at) / Fold change /veh NR4A2 (11747474_a_at) / RFU ABCC12 (11746883_a_at) / Fold change /veh ABCC12 (11746883_a_at) / RFU TMEM136 (11760407_x_at) / Fold change /veh TMEM136 (11760407_x_at) / RFU CLDN22 /// WWC2 (11732394_at) / Fold change /veh CLDN22 /// WWC2 (11732394_at) / RFU HLA-DPB1 (11760878_x_at) / Fold change /veh HLA-DPB1 (11760878_x_at) / RFU SPINT1 (11716480_a_at) / Fold change /veh SPINT1 (11716480_a_at) / RFU GAP43 (11754022_s_at) / Fold change /veh GAP43 (11754022_s_at) / RFU A4GNT (11735810_at) / Fold change /veh A4GNT (11735810_at) / RFU PRB3 (11715151_x_at) / Fold change /veh PRB3 (11715151_x_at) / RFU TUBB4B (11761932_at) / Fold change /veh TUBB4B (11761932_at) / RFU CAPN14 (11732068_a_at) / Fold change /veh CAPN14 (11732068_a_at) / RFU TMCC2 (11721928_a_at) / Fold change /veh TMCC2 (11721928_a_at) / RFU IRGQ (11745062_a_at) / Fold change /veh IRGQ (11745062_a_at) / RFU FAM174B (11720279_a_at) / Fold change /veh FAM174B (11720279_a_at) / RFU TMPRSS4 (11748680_a_at) / Fold change /veh TMPRSS4 (11748680_a_at) / RFU FAM212B (11763350_a_at) / Fold change /veh FAM212B (11763350_a_at) / RFU PLEKHG5 (11743358_a_at) / Fold change /veh PLEKHG5 (11743358_a_at) / RFU ZSCAN30 (11745921_a_at) / Fold change /veh ZSCAN30 (11745921_a_at) / RFU CMKLR1 (11741424_a_at) / Fold change /veh CMKLR1 (11741424_a_at) / RFU LOC101060620 /// MAPK8IP1 (11723275_at) / Fold change /veh LOC101060620 /// MAPK8IP1 (11723275_at) / RFU SPTSSB (11747773_x_at) / Fold change /veh SPTSSB (11747773_x_at) / RFU PRSS12 (11739890_at) / Fold change /veh PRSS12 (11739890_at) / RFU BIN1 (11741810_x_at) / Fold change /veh BIN1 (11741810_x_at) / RFU WNT11 (11732464_a_at) / Fold change /veh WNT11 (11732464_a_at) / RFU C10orf10 (11716521_a_at) / Fold change /veh C10orf10 (11716521_a_at) / RFU C5orf56 (11738089_at) / Fold change /veh C5orf56 (11738089_at) / RFU CYB561 (11721691_x_at) / Fold change /veh CYB561 (11721691_x_at) / RFU ANKRD19P (11752326_a_at) / Fold change /veh ANKRD19P (11752326_a_at) / RFU OR2T12 /// OR2T33 /// OR2T8 (11738714_s_at) / Fold change /veh OR2T12 /// OR2T33 /// OR2T8 (11738714_s_at) / RFU VCAN (11748164_a_at) / Fold change /veh VCAN (11748164_a_at) / RFU JSRP1 (11732532_at) / Fold change /veh JSRP1 (11732532_at) / RFU KRTAP10-11 (11738290_x_at) / Fold change /veh KRTAP10-11 (11738290_x_at) / RFU MYO3A (11730013_a_at) / Fold change /veh MYO3A (11730013_a_at) / RFU EBF3 (11725865_a_at) / Fold change /veh EBF3 (11725865_a_at) / RFU CAMK2N1 (11719241_x_at) / Fold change /veh CAMK2N1 (11719241_x_at) / RFU C5orf56 (11738088_a_at) / Fold change /veh C5orf56 (11738088_a_at) / RFU OLFML3 (11715873_a_at) / Fold change /veh OLFML3 (11715873_a_at) / RFU LOC100653217 /// NTM (11731650_a_at) / Fold change /veh LOC100653217 /// NTM (11731650_a_at) / RFU MAPK11 (11762145_a_at) / Fold change /veh MAPK11 (11762145_a_at) / RFU FIZ1 (11724087_x_at) / Fold change /veh FIZ1 (11724087_x_at) / RFU OASL (11726364_x_at) / Fold change /veh OASL (11726364_x_at) / RFU SOX15 (11748057_x_at) / Fold change /veh SOX15 (11748057_x_at) / RFU CD79A (11719716_a_at) / Fold change /veh CD79A (11719716_a_at) / RFU HIST1H1D (11736915_at) / Fold change /veh HIST1H1D (11736915_at) / RFU CASKIN2 (11723855_a_at) / Fold change /veh CASKIN2 (11723855_a_at) / RFU LOC730098 (11760151_x_at) / Fold change /veh LOC730098 (11760151_x_at) / RFU OR4N2 (11742367_at) / Fold change /veh OR4N2 (11742367_at) / RFU PRRT2 (11749266_a_at) / Fold change /veh PRRT2 (11749266_a_at) / RFU SNX32 (11753110_a_at) / Fold change /veh SNX32 (11753110_a_at) / RFU CDHR5 (11726645_a_at) / Fold change /veh CDHR5 (11726645_a_at) / RFU RCAN1 (11760418_a_at) / Fold change /veh RCAN1 (11760418_a_at) / RFU FAM167A (11723789_a_at) / Fold change /veh FAM167A (11723789_a_at) / RFU FAM26E (11764081_at) / Fold change /veh FAM26E (11764081_at) / RFU ISYNA1 (11749810_s_at) / Fold change /veh ISYNA1 (11749810_s_at) / RFU ACY1 (11761880_at) / Fold change /veh ACY1 (11761880_at) / RFU 11764098_at / Fold change /veh 11764098_at / RFU SAMD14 (11745864_x_at) / Fold change /veh SAMD14 (11745864_x_at) / RFU NPB (11741838_a_at) / Fold change /veh NPB (11741838_a_at) / RFU TMPRSS6 (11731388_a_at) / Fold change /veh TMPRSS6 (11731388_a_at) / RFU KRTAP10-2 (11738614_at) / Fold change /veh KRTAP10-2 (11738614_at) / RFU ARHGAP8 /// PRR5-ARHGAP8 (11727945_x_at) / Fold change /veh ARHGAP8 /// PRR5-ARHGAP8 (11727945_x_at) / RFU KRTAP5-7 /// NADSYN1 (11734609_at) / Fold change /veh KRTAP5-7 /// NADSYN1 (11734609_at) / RFU RASL12 (11751679_a_at) / Fold change /veh RASL12 (11751679_a_at) / RFU CDKN2B (11736163_a_at) / Fold change /veh CDKN2B (11736163_a_at) / RFU PRF1 (11729649_at) / Fold change /veh PRF1 (11729649_at) / RFU, ZNF638 /// ZNF638-IT1 / Fold change vs veh, ZNF638 /// ZNF638-IT1 / RFU, PANK3 / Fold change vs veh, PANK3 / RFU, SH3YL1 / Fold change vs veh, SH3YL1 / RFU, ZEB2 / Fold change vs veh, ZEB2 / RFU, NRIP1 / Fold change vs veh, NRIP1 / RFU, PTTG1IP / Fold change vs veh, PTTG1IP / RFU, CAPN2 / Fold change vs veh, CAPN2 / RFU, MED14 / Fold change vs veh, MED14 / RFU, SNORA58 / Fold change vs veh, SNORA58 / RFU, C1orf63 / Fold change vs veh, C1orf63 / RFU, LRRFIP1 / Fold change vs veh, LRRFIP1 / RFU, NDUFAF7 / Fold change vs veh, NDUFAF7 / RFU, SLC12A2 / Fold change vs veh, SLC12A2 / RFU, IBTK / Fold change vs veh, IBTK / RFU, ESF1 / Fold change vs veh, ESF1 / Fold change vs veh, TMEM50B / RFU, TAOK1 / Fold change vs veh, TAOK1 / RFU, ACBD3 / Fold change vs veh, ACBD3 / RFU, TMA16 / Fold change vs veh, TMA16 / RFU, RWDD3 / Fold change vs veh, RWDD3 / RFU, BCAT1 / Fold change vs veh, BCAT1 / RFU, EDEM3 / Fold change vs veh, EDEM3 / RFU, TMEM33 / Fold change vs veh, TMEM33 / RFU, WDR75 / Fold change vs veh, WDR75 / RFU, AHCTF1 / Fold change vs veh, AHCTF1 / RFU, TFRC / Fold change vs veh, TFRC / RFU, ZDHHC17 / Fold change vs veh, ZDHHC17 / RFU, NOM1 / Fold change vs veh, NOM1 / RFU, ARL8B / Fold change vs veh, ARL8B / RFU, ZBTB11 / Fold change vs veh, ZBTB11 / RFU, TAMM41 / Fold change vs veh, TAMM41 / RFU, KIAA1704 /// LOC100996395 / Fold change vs veh, KIAA1704 /// LOC100996395 / RFU, ING1 / Fold change vs veh, ING1 / RFU, TRMT61B / Fold change vs veh, TRMT61B / RFU, FUBP3 / Fold change vs veh, FUBP3 / RFU, TP53 / Fold change vs veh, TP53 / RFU, TNKS2 / Fold change vs veh, TNKS2 / RFU, ZFP14 / Fold change vs veh, ZFP14 / RFU, ACTR2 / Fold change vs veh, ACTR2 / RFU, PPP3R1 / Fold change vs veh, PPP3R1 / RFU, PIK3R1 / Fold change vs veh, PIK3R1 / RFU, HNRNPA1 / Fold change vs veh, HNRNPA1 / RFU, RNF170 / Fold change vs veh, RNF170 / RFU, ZNF28 / Fold change vs veh, ZNF28 / RFU, RNGTT / Fold change vs veh, RNGTT / RFU, OGT / Fold change vs veh, OGT / RFU, BRD1 / Fold change vs veh, BRD1 / RFU, MARS / Fold change vs veh, MARS / RFU, ZNF655 / Fold change vs veh, ZNF655 / RFU, FAHD1 / Fold change vs veh, FAHD1 / RFU, BDP1 / Fold change vs veh, BDP1 / RFU, LRRCC1 / Fold change vs veh, LRRCC1 / RFU, ARID1A / Fold change vs veh, ARID1A / RFU, ZNF146 / Fold change vs veh, ZNF146 / RFU, ZNF330 / Fold change vs veh, ZNF330 / RFU, GPN3 / Fold change vs veh, GPN3 / RFU, C9orf123 / Fold change vs veh, C9orf123 / RFU, N4BP2L2 / Fold change vs veh, N4BP2L2 / RFU, ARFIP1 / Fold change vs veh, ARFIP1 / RFU, FAM179B / Fold change vs veh, FAM179B / RFU, BCL10 / Fold change vs veh, BCL10 / RFU, UHRF1BP1L / Fold change vs veh, UHRF1BP1L / RFU, BET1 / Fold change vs veh, BET1 / RFU, CNOT2 / Fold change vs veh, CNOT2 / RFU, ZNF268 / Fold change vs veh, ZNF268 / Fold change vs veh, ZNF507 / RFU, DGCR2 / Fold change vs veh, DGCR2 / RFU, WDSUB1 / Fold change vs veh, WDSUB1 / Fold change vs veh, HSP90B1 /// MIR3652 / RFU, ADSS / Fold change vs veh, ADSS / RFU, GK / Fold change vs veh, GK / RFU, ZNF148 / Fold change vs veh, ZNF148 / RFU, TAF9 / Fold change vs veh, TAF9 / RFU, SLC1A5 / Fold change vs veh, SLC1A5 / RFU, SLMO2 / Fold change vs veh, SLMO2 / RFU, ABCC4 / Fold change vs veh, ABCC4 / RFU, LOC101060439 /// RAP1B / Fold change vs veh, LOC101060439 /// RAP1B / RFU, RFX7 / Fold change vs veh, RFX7 / RFU, GTPBP10 / Fold change vs veh, GTPBP10 / RFU, CNEP1R1 / Fold change vs veh, CNEP1R1 / RFU, BIVM-ERCC5 /// ERCC5 / Fold change vs veh, BIVM-ERCC5 /// ERCC5 / RFU, ILF3 / Fold change vs veh, ILF3 / RFU 11762660_at / Fold change /veh 11762660_at / RFU VCAN (11757783_s_at) / Fold change /veh VCAN (11757783_s_at) / RFU DDX43 (11728927_at) / Fold change /veh DDX43 (11728927_at) / RFU KRT8 (11758188_x_at) / Fold change /veh KRT8 (11758188_x_at) / RFU NKD1 (11759106_at) / Fold change /veh NKD1 (11759106_at) / RFU SRD5A1 (11742802_a_at) / Fold change /veh SRD5A1 (11742802_a_at) / RFU TPSAB1 /// TPSB2 (11721975_s_at) / Fold change /veh TPSAB1 /// TPSB2 (11721975_s_at) / RFU GSTM3 (11746129_a_at) / Fold change /veh GSTM3 (11746129_a_at) / RFU IL23R (11737362_x_at) / Fold change /veh IL23R (11737362_x_at) / RFU TMEM51 (11727254_a_at) / Fold change /veh TMEM51 (11727254_a_at) / RFU PIWIL2 (11732686_x_at) / Fold change /veh PIWIL2 (11732686_x_at) / RFU ORM1 (11744905_x_at) / Fold change /veh ORM1 (11744905_x_at) / RFU CCDC152 (11743942_at) / Fold change /veh CCDC152 (11743942_at) / RFU ECM1 (11717891_a_at) / Fold change /veh ECM1 (11717891_a_at) / RFU IL23R (11748794_a_at) / Fold change /veh IL23R (11748794_a_at) / RFU TNFAIP8L3 (11732012_x_at) / Fold change /veh TNFAIP8L3 (11732012_x_at) / RFU MBOAT4 (11741988_at) / Fold change /veh MBOAT4 (11741988_at) / RFU 11764193_at / Fold change /veh 11764193_at / RFU TMEM53 (11763286_at) / Fold change /veh TMEM53 (11763286_at) / RFU MAGEB2 (11727129_at) / Fold change /veh MAGEB2 (11727129_at) / RFU TMEM200A (11744735_a_at) / Fold change /veh TMEM200A (11744735_a_at) / RFU CCDC152 (11751479_a_at) / Fold change /veh CCDC152 (11751479_a_at) / RFU FAM211A (11726209_a_at) / Fold change /veh FAM211A (11726209_a_at) / RFU RGS16 (11746705_a_at) / Fold change /veh RGS16 (11746705_a_at) / RFU VCAN (11755009_s_at) / Fold change /veh VCAN (11755009_s_at) / RFU RHOB (11743442_s_at) / Fold change /veh RHOB (11743442_s_at) / RFU RGS16 (11720943_a_at) / Fold change /veh RGS16 (11720943_a_at) / RFU RGS16 (11720944_at) / Fold change /veh RGS16 (11720944_at) / RFU, VPS4B / Fold change vs veh, VPS4B / RFU, CREB1 / Fold change vs veh, CREB1 / RFU, DNAJC13 / Fold change vs veh, DNAJC13 / RFU, GNAQ / Fold change vs veh, GNAQ / RFU, CDK5R1 / Fold change vs veh, CDK5R1 / RFU, ZRANB3 / Fold change vs veh, ZRANB3 / RFU, CUL4A / Fold change vs veh, CUL4A / RFU, CCNY / Fold change vs veh, CCNY / RFU, UFL1 / Fold change vs veh, UFL1 / RFU, COG3 / Fold change vs veh, COG3 / RFU, DIAPH2 / Fold change vs veh, DIAPH2 / RFU, SKA2 / Fold change vs veh, SKA2 / RFU, AFF3 / Fold change vs veh, AFF3 / RFU, LMF1 / Fold change vs veh, LMF1 / RFU, IPO11 / Fold change vs veh, IPO11 / RFU, DFFB / Fold change vs veh, DFFB / RFU, FOXP1 / Fold change vs veh, FOXP1 / RFU, CARD8 / Fold change vs veh, CARD8 / RFU, STRN3 / Fold change vs veh, STRN3 / RFU, ADK / Fold change vs veh, ADK / RFU, RASSF2 / Fold change vs veh, RASSF2 / RFU, WIPF1 / Fold change vs veh, WIPF1 / RFU, LARP1B / Fold change vs veh, LARP1B / RFU, RASA1 / Fold change vs veh, RASA1 / RFU, RB1 / Fold change vs veh, RB1 / RFU, PPFIA1 / Fold change vs veh, PPFIA1 / RFU, MAT2A / Fold change vs veh, MAT2A / RFU, CCT5 / Fold change vs veh, CCT5 / RFU, WDR92 / Fold change vs veh, WDR92 / RFU, CUX1 / Fold change vs veh, CUX1 / RFU, TTC7A / Fold change vs veh, TTC7A / RFU, TMEM135 / Fold change vs veh, TMEM135 / RFU, DEPTOR / Fold change vs veh, DEPTOR / RFU, CPM / Fold change vs veh, CPM / RFU, DNAJB6 / Fold change vs veh, DNAJB6 / RFU, CACNA2D3 / Fold change vs veh, CACNA2D3 / RFU, DTX4 / Fold change vs veh, DTX4 / RFU, TFCP2 / Fold change vs veh, TFCP2 / RFU, GMCL1 /// GMCL1P1 / Fold change vs veh, GMCL1 /// GMCL1P1 / RFU, AEBP2 / Fold change vs veh, AEBP2 / RFU, SNHG1 /// SNORD22 /// SNORD25 /// SNORD26 /// SNORD27 /// SNORD28 /// SNORD29 /// SNORD31 / Fold change vs veh, SNHG1 /// SNORD22 /// SNORD25 /// SNORD26 /// SNORD27 /// SNORD28 /// SNORD29 /// SNORD31 / Fold change (Aza/veh), C12orf56 (ProbeSet 11735607_a_at) / Fold change (ACY-1035/veh), C12orf56 (ProbeSet 11735607_a_at) / Fold change (Aza/veh), FGFR1OP (ProbeSet 11751329_s_at) / Fold change (ACY-1035/veh), FGFR1OP (ProbeSet 11751329_s_at) / Fold change (Aza/veh), VPS36 (ProbeSet 11739960_a_at) / Fold change (ACY-1035/veh), VPS36 (ProbeSet 11739960_a_at) / RFU SYPL1 (11715823_x_at) / Fold change /veh SYPL1 (11715823_x_at) / RFU IGFBP7 (11715501_s_at) / Fold change /veh IGFBP7 (11715501_s_at) / RFU REEP3 (11722064_at) / Fold change /veh REEP3 (11722064_at) / RFU IGLL1 (11728026_x_at) / Fold change /veh IGLL1 (11728026_x_at): dose or concentration left out as unconfirmed
# Conditions: ProbeSet 11732281_s_at; LIST D
smiles,measurement,value
Nc1ncn([C@@H]2O[C@H](CO)[C@@H](O)[C@H]2O)c(=O)n1 [azacitidine],"Fold change vs veh, FOXP1",0.63
